47 compounds from ChEMBL document CHEMBL1144769 (J Med Chem, 2008) can be followed below.

Activity calls are given as the source filed them. No cut-off for these calls is given here.

Data set [1] deals with T1, Prostaglandin G/H synthase 1 (Homo sapiens, UniProt P23219). Kind of data set: Inhibition of COX1.
In data set [2] the target is T2, Prostaglandin G/H synthase 2 (Homo sapiens, UniProt P35354).
T2 sequence (P35354 whole entry): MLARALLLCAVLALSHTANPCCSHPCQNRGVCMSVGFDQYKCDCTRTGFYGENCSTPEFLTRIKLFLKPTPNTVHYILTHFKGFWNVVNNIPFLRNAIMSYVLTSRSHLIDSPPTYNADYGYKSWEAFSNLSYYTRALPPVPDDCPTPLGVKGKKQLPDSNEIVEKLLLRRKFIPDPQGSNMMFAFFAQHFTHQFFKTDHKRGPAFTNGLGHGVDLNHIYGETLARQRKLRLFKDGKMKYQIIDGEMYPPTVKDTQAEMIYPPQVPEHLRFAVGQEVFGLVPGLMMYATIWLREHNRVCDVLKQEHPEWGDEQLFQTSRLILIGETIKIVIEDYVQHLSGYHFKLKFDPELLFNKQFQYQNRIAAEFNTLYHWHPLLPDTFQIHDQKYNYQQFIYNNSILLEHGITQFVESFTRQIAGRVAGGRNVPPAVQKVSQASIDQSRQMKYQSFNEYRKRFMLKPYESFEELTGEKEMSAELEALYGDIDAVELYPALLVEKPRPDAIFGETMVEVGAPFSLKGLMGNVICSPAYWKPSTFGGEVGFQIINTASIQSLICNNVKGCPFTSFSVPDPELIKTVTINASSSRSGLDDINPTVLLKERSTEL
Kind of data set: Inhibition of COX2.

For data set [3], the target named is T1, Prostaglandin G/H synthase 1. Kind of data set: Inhibition of COX1 at 100 uM.
For data set [4], the system named is Rattus norvegicus. Nature of the data set: Induction of gastric ulcer formation in Sprague-Dawley rat at 10 mg/kg, po after 5 hrs. The format is organism-based, Stomach. Also on record: dose 10 mg/kg, route oral. Particulars: in vivo.
The subject of data set [5] is Mus musculus. Kind of data set: Analgesic activity in ICR mouse assessed as reduction in number of acetic acid-induced writhing at 10 mg/kg, po after 10 mins. The format is functional, organism-based. Also on record: dose 10 mg/kg.
Data set [6] has as its system Rattus norvegicus. Kind of data set: Induction of gastric ulcer formation in Sprague-Dawley rat at 30 mg/kg, po after 5 hrs. The format is organism-based, Stomach. Also on record: dose 30 mg/kg, route oral. The following applies: in vivo.
In data set [7] the test system is Rattus norvegicus. Nature of the data set: Induction of gastric ulcer formation in Sprague-Dawley rat at 30 mg/kg, po administered daily for 1 week. The following applies: in vivo, 168 h. On the set-up: dose 30 mg/kg, route oral. The format is organism-based, Stomach.
In data set [8] the test system is Mus musculus. Kind of data set: Acute toxicity in ICR mouse upto 300 mg/kg, po upto 14 days. The format is organism-based. On the set-up: dose 300 mg/kg, route oral. The following applies: in vivo, 336 h.
Data set [9] has as its system Mus musculus. Kind of data set: Analgesic activity in ICR mouse assessed as reduction in number of acetic acid-induced writhing at 30 mg/kg, po after 10 mins. The format is functional, organism-based. Also on record: dose 30 mg/kg. A general note: An intraperitoneal irritant provokes the stretching counted in writhing tests.
Data set [10] relates to Rattus norvegicus. Nature of the data set: Analgesic activity in Sprague-Dawley rat assessed as reduction in formalin-induced pain at 30 mg/kg, po. The format is functional, organism-based. On the set-up: dose 30 mg/kg.
Data set [11] in a line: Cmax in Sprague-Dawley rat at 30 mg/kg, po. The format is ADME, organism-based. Also on record: dose 30 mg/kg, route oral. The following applies: in vivo.

T1 sequence (P23219 whole entry): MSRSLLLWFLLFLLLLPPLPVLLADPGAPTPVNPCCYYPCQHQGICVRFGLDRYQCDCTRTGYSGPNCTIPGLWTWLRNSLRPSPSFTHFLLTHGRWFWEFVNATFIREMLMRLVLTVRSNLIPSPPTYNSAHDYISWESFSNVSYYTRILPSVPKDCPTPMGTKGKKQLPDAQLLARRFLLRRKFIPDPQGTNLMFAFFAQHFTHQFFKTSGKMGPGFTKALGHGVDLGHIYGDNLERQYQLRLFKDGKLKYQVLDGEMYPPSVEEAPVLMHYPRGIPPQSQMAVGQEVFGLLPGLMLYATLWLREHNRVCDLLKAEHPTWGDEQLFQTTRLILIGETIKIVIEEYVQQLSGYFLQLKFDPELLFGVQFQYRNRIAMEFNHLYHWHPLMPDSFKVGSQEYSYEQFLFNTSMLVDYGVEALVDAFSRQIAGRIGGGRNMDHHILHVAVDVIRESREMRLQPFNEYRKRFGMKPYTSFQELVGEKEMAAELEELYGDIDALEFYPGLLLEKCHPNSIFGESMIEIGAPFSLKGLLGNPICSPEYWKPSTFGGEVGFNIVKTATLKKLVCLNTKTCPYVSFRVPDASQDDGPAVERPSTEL

Turning to `Nc1ccccc1NC(=O)c1ccccc1C(F)(F)F`, the IC50 in data set [1] and in data set [2] was > 100 µM in each case. Turning to `Nc1cccc(C(=O)Nc2cccc(C(F)(F)F)c2)c1`, the IC50 in [1] and in data set [2] was > 100 µM each time. Consider `Nc1ccccc1NC(=O)c1ccc(C(F)(F)F)cc1`, for which the IC50 (commonly the concentration that gives 50% inhibition) in data set [1] is 88 µM; in [2], > 100 µM. The inhibition (commonly the share of the control response that was lost under treatment) in data set [3] amounted to 53%. With `Nc1ccnc(NC(=O)c2ccc(C(F)(F)F)cc2)c1`, the IC50 in data set [1] and in data set [2] was > 100 µM in each case. `Cc1ccccc1NC(=O)c1ccccc1N` had an inhibition in data set [3] of 53%. On the same count and under the same terms, the same measure for `Cc1cccc(NC(=O)c2ccccc2N)c1`: 67%. For the compound `Nc1ccccc1C(=O)Nc1ccc(C(F)(F)F)cc1`, the concentration for half-maximal inhibition (IC50) was 16 µM in data set [1] and > 100 µM in data set [2]. Moreover, the inhibition in data set [3] is 68%. Regarding `Nc1cccc(C(=O)Nc2ccc(C(F)(F)F)cc2)c1`, the IC50 in data set [1] was 19 µM; in data set [2], > 100 µM. The inhibition in [3] is 70%. The like results for `Nc1ccc(NC(=O)c2ccc(C(F)(F)F)cc2)cc1` were, in that order, 29 µM, > 100 µM and 63%.

In the case of `CCN(C(=O)c1ccccc1N)c1ccccc1`, in data set [3], the inhibition came out at 5%.

Take `Nc1ccc(C(=O)Nc2ccc(C(F)(F)F)cn2)cc1`: the IC50 in data set [1] was 10 µM; in [2], > 100 µM. The compound `Cc1ccc(NC(=O)c2ccc(Cl)cc2)cc1` showed an inhibition in data set [3] of 23%. Consider `COc1ccc2c(c1)c(CC(=O)O)c(C)n2C(=O)c1ccc(Cl)cc1` [INDOMETHACIN], for which the result with Rattus norvegicus [4] was Active. Moreover, the outcome with Mus musculus [5] was Active. On to `O=C(Nc1ccc(C(F)(F)F)cc1)c1ccccc1[N+](=O)[O-]`, for which the inhibition in data set [3] worked out at 31%. `Nc1ccc(NC(=O)c2ccccc2)cc1`: the inhibition in data set [3] stood at 54%. In the case of `Nc1ccc(NC(=O)c2ccccc2C(F)(F)F)cc1`, the IC50 in data set [1] and in data set [2] was > 100 µM each time. For `CC(=O)Oc1ccccc1C(=O)O` [ASPIRIN], in the data set with Rattus norvegicus [6], the outcome was Active. With `Nc1ccc(NC(=O)c2cccc(C(F)(F)F)c2)nc1`, the IC50 in [1] was 12 µM; in data set [2], > 100 µM. As to `Nc1ccnc(NC(=O)c2cccc(C(F)(F)F)c2)c1`, the IC50 in [1] and in data set [2] was > 100 µM in each case.

In the case of `Nc1ccc(C(=O)Nc2cccc(C(F)(F)F)c2)cc1`, the 50% inhibitory concentration (IC50) in [1] and in data set [2] was > 100 µM each time. In [3], `CCN(C(=O)c1ccccc1N)c1ccc(Cl)cc1` registered an inhibition of 23%. `O=C(Nc1ccc(C(F)(F)F)cc1)c1ccc([N+](=O)[O-])cc1`: the inhibition in data set [3] was 0%. Still for that read-out and setting: the same measure for `Cc1ccc(NC(=O)c2ccc(N)cc2)cc1`: 56%; for `O=C(Nc1ccc(C(F)(F)F)cc1)c1cccc([N+](=O)[O-])c1`: 13%. With `Nc1ccccc1NC(=O)c1cccc(C(F)(F)F)c1`, the figures for the IC50 in [1] and in data set [2] were 72 µM and > 100 µM, respectively.

As to `Nc1cccnc1NC(=O)c1cccc(C(F)(F)F)c1`, the half-maximal inhibitory concentration (IC50) in data set [1] and in data set [2] was > 100 µM throughout. Regarding `Nc1ccc(C(=O)Nc2ccc(Cl)cc2)cc1`, the inhibition in [3] was 53%. Turning to `Nc1ccc(C(=O)Nc2ccccc2C(F)(F)F)cc1`, the half-maximal inhibitory concentration (IC50) in data set [1] and in [2] was > 100 µM each time. Take `Nc1ccccc1C(=O)Nc1ccc(Cl)cc1`: in [3], the inhibition was 52%. As to `Nc1ccccc1C(=O)Nc1ccccc1C(F)(F)F`, the half-maximal inhibitory concentration (IC50) in data set [1] and in data set [2] was > 100 µM in each case. Further, the inhibition in [3] amounted to 32%. `Cc1ccc(NC(=O)c2ccccc2N)cc1` displayed an inhibition in [3] of 57%. Turning to `Nc1cccc(NC(=O)c2ccc(C(F)(F)F)cc2)c1`, the figures for the IC50 in data set [1] and in data set [2] were 14 µM and > 100 µM, respectively. Further, the inhibition in data set [3] was 76%.

`COc1ccc(-c2nc(C(=O)N3CCN(C)CC3)sc2-c2ccc(OC)cc2)cc1` [FR-122047]: the values for the IC50 in data set [1] and in data set [2] were 0.028 µM and 65 µM, respectively. Regarding `Nc1ccc(NC(=O)c2ccc(C(F)(F)F)cc2)nc1`, the Activity entry with Rattus norvegicus [7] is recorded as “Not Active”; in the data set on Mus musculus [8], “Non-toxic”. The result in the data set with Mus musculus [9], in the data set with Rattus norvegicus [10] and in the data set on Mus musculus [5] was Active. In addition, the half-maximal inhibitory concentration (IC50) in data set [1] amounted to 0.8 µM; in data set [2], 210 µM. Moreover, the Cmax (usually the maximum level reached in the sampled fluid or tissue) in data set [11] stood at 12 µM. Take `Nc1cccc(NC(=O)c2cccc(C(F)(F)F)c2)c1`: the IC50 is 7.2 µM in data set [1] and > 100 µM in [2]. Consider `Nc1cccnc1NC(=O)c1ccc(C(F)(F)F)cc1`, for which the IC50 in [1] and in data set [2] was > 100 µM throughout. Take `Nc1ccc(C(=O)Nc2ccc(C(F)(F)F)cc2)cc1`: the concentration for half-maximal inhibition (IC50) in [1] is 30 µM; in [2] it was > 100 µM. Besides, the inhibition in data set [3] was 71%.

As to `Nc1cccc(C(=O)Nc2ccccc2C(F)(F)F)c1`, the concentration for half-maximal inhibition (IC50) in [1] and in data set [2] was > 100 µM in each case.

For the compound `Nc1ccc(C(=O)Nc2ccc(C(F)(F)F)cc2)nc1`, the half-inhibitory concentration (IC50) in [1] and in data set [2] was > 100 µM each time. Consider `Nc1ccc(NC(=O)c2ccc(Cl)cc2)cc1`, for which, in data set [3], the inhibition stood at 49%.

Turning to `Nc1ccccc1C(=O)Nc1cccc(C(F)(F)F)c1`, the results for the concentration for half-maximal inhibition (IC50) in data set [1] and in [2] were 10 µM and > 100 µM, respectively. The inhibition in data set [3] stood at 90%. As for `COc1ccc(NC(=O)c2ccc(Cl)cc2)cc1`, the inhibition in data set [3] was 35%. The same measure, in the same setting: the same measure for `Cc1ccc(C(=O)Nc2ccc(N)cc2)cc1`: 53%.

Regarding `Nc1ccc(NC(=O)c2cccc(C(F)(F)F)c2)cc1`, the values for the IC50 in [1] and in [2] were 62 µM and > 100 µM, respectively.

Turning to `Nc1cccc(NC(=O)c2ccccc2C(F)(F)F)c1`, the results for the IC50 in data set [1] and in [2] were 94 µM and > 100 µM, respectively. Take `Nc1ccccc1C(=O)Nc1ccccc1`: the inhibition in [3] stood at 64%. Same read-out and setting: next, `Nc1ccc(C(=O)Nc2ccccc2)cc1`: 40%.
